“And” between values parts separate entries of the source, which are not always exact repeats. Identical values can stand only once. Like-named read-outs stand apart in the source and are kept apart here.

These results are taken from patent US20250195521A1 (Revolution Medicines, Inc., priority 2020, published 2025).

Assay [1] addresses K-Ras G12C(GMP-PNP) binding to BRAF RBD (Homo sapiens (Human), UniProt P01116+P62937, G12C). The assay can be described thus: Disruption of BRAF RBD interaction with K-Ras (FRET / MOA assay), K-Ras G12C. It is filed as biochemical. An excerpt: Note—The following protocol describes a procedure for monitoring disruption of K-Ras G12C(GMP-PNP) binding to BRAF^RBD by a compound of the invention. This protocol may also be executed substituting other Ras proteins or nucleotides.
The purpose of this biochemical assay was to measure the ability of test compounds to facilitate ternary complex formation between a nucleotide-loaded K-Ras isoform and Cyclophilin A; the resulting ternary complex disrupts binding to a BRAF^RBD construct, inhibiting K-Ras signaling through a RAF effector. Data is reported as IC50 values.
Compound was present in plate wells as a 10-point 3-fold dilution series starting at a final concentration of 30 μM. After incubation at 25° C. for 3 hours, a mixture of Anti-His Eu—W1024 and anti-GST allophycocyanin was then added to assay sample wells at final concentrations of 10 nM and 50 nM, respectively, and the reaction incubated for an additional 1.5 hours. […] Compounds that facilitate disruption of a K-Ras: RAF complex were identified as those eliciting a decrease in the TR-FRET ratio relative to DMSO control wells.

In assay [2] the test system is NCI-H358 (K-Ras G12C). As to the kind of experiment: CellTiter-Glo cell viability assay, NCI-H358. It is filed as cell-based, human. As to conditions: Homo sapiens, NCI-H358, 120 h, 5-day treatment; read-out: H358 Cell Viability assay data (K-Ras G12C, IC50). The procedure, abridged: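 NCI-H358 cells were treated with test compounds dispensed directly into the assay wells and incubated until day 5. Viability was then read by CellTiter-Glo luminescence after a ~30 min room-temperature equilibration, normalized to the DMSO average (×100), and fit with a four-parameter logistic curve.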

Assay [3] relates to K-Ras G12C (NCI-H358 cells). As to the kind of experiment: Potency assay: pERK in NCI-H358 cells. Format: cell-based, human. Conditions: NCI-H358 cells, 4 hours, read-out: pERK EC50 (H358 KRAS G12C). The procedure, abridged:
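Cells plated the day before were exposed for 4 h at 37° C, 5% CO2 to a 10-point, 3-fold DMSO dilution series (10 mM top stock), in duplicate. Phospho-ERK was read by AlphaLISA SureFire Ultra or by In-Cell Western with DRAQ5 DNA stain, and IC50 came from a 4-parameter sigmoidal fit.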

Assay [4] has as its system Capan-1 cells (K-Ras G12V). As to the kind of experiment: CellTiter-Glo cell viability, Capan-1. Format: cell-based, human. Conditions: Homo sapiens, CAPAN-1, 120 h, K-Ras G12V, 5-day treatment; read-out: Capan-1 Cell Viability IC50. The procedure, abridged:
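Compounds were dispensed directly onto seeded cells and incubated until day 5, then plates were equilibrated at room temperature for about 30 min before CellTiter-Glo luminescence readout. Signals were normalized as (sample/average DMSO)×100 and fitted with a four-parameter logistic model.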

For assay [5], the target named is KRAS G12D (Homo sapiens (Human), UniProt P01116+P62937, G12D). The assay can be described thus: Ras-Raf disruption/FRET/MOA assay (BRAF RBD, Cyclophilin A). As to conditions: read-out: KRAS G12D FRET IC50. It is filed as biochemical. The procedure, abridged: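 First, 25 μM Cyclophilin A, 12.5 nM His6-Ras-GMPPNP and 50 nM GST-BRAF RBD are mixed with diluted compound at pH 7.3. Next, 3 h at 25° C. Then 10 nM anti-His Eu-W1024 plus 50 nM anti-GST allophycocyanin for 1.5 h before TR-FRET reading.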
KRAS G12D, sequence (P01116 other isoform, or with tags, fused parts or gaps G12D): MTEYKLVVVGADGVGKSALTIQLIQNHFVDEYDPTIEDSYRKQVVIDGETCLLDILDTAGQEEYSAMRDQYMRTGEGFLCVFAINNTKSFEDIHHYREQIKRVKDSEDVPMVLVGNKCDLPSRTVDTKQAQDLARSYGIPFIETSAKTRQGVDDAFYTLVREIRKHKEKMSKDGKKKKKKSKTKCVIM
KRAS G12D, sequence (P62937 whole entry): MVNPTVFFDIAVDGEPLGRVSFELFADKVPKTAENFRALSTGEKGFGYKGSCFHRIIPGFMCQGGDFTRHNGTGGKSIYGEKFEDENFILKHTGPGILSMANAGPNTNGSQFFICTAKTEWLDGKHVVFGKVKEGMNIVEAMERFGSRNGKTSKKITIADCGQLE

K-Ras G12C(GMP-PNP) binding to BRAF RBD, sequence (P01116 other isoform, or with tags, fused parts or gaps G12C): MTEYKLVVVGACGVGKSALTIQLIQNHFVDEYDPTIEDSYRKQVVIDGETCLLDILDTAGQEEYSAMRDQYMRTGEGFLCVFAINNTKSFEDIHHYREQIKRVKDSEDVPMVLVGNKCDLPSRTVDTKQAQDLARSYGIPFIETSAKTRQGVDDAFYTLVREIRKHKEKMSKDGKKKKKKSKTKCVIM
K-Ras G12C(GMP-PNP) binding to BRAF RBD, sequence (P62937 whole entry, canonical isoform): as the sequence (P62937 whole entry) above

As for `CCn1c(-c2cccnc2[C@H](C)OC)c2c3cc(ccc31)-c1csc(n1)C[C@H](NC(=O)[C@H](C(C)C)N(C)C(=O)N1CC([C@@H](C)CO)C1)C(=O)N1CCC[C@H](N1)C(=O)OCC(C)(C)C2` (single isomer, unassigned) [Compound A487], the values for the IC50 in assay [1] (read-out: KRAS G12C FRET IC50) and in assay [2] were 100 to 1000 nM and 10 to 100 nM, respectively.
In the case of `CCn1c(-c2cccnc2[C@H](C)OC)c2c3cc(ccc31)-c1cc(O)cc(c1)C[C@H](NC(=O)[C@H](C(C)C)N(C)C(=O)[C@H]1CCN(C)C1)C(=O)N1CCC[C@H](N1)C(=O)OCC(C)(C)C2` [Compound A100], the IC50 in assay [1] (read-out: KRAS G12C FRET IC50) lay in the range of 1000 to 10000 nM.
Regarding `CCn1c(-c2cccnc2[C@H](C)OC)c2c3cc(ccc31)-c1csc(n1)C[C@H](NC(=O)[C@H](C(C)C)N(C)C(=O)[C@H]1CCN(C(=O)CN)C1)C(=O)N1CCC[C@H](N1)C(=O)OCC(C)(C)C2` [Compound A106], the IC50 in assay [1] (read-out: KRAS G12C FRET IC50) is 1000 to 10000 nM.
Take `CCn1c(-c2cccnc2[C@H](C)OC)c2c3cc(ccc31)-c1cccc(c1)C[C@H](NC(=O)[C@H](C(C)C)N(C)C(=O)[C@H]1CCN(C(=O)C(C)(C)N(C)C)C1)C(=O)N1CCC[C@H](N1)C(=O)OCC(C)(C)C2` [Compound A112]: the IC50 in assay [1] (read-out: KRAS G12C FRET IC50) is 100 to 1000 nM and < 10 nM. Moreover, the EC50 in assay [3] (Homo sapiens) was less than 5000 nM.
Take `CCn1c(-c2cccnc2[C@H](C)OC)c2c3cc(ccc31)-c1cc(O)cc(c1)C[C@H](NC(=O)[C@H](C(C)C)N(C)C(=O)[C@H]1CCN(C(=O)OC(C)C)C1)C(=O)N1CCC[C@H](N1)C(=O)OCC(C)(C)C2` [Compound A117]: the IC50 in assay [1] (read-out: KRAS G12C FRET IC50) and in assay [2] was 100 to 1000 nM each time. Further, the EC50 in assay [3] (Homo sapiens) was less than 5000 nM.
In the case of `CCn1c(-c2cccnc2[C@H](C)OC)c2c3cc(ccc31)-c1cc(O)cc(c1)C[C@H](NC(=O)[C@H](C(C)C)N(C)C(=O)C1CCN3CCOCC13)C(=O)N1CCC[C@H](N1)C(=O)OCC(C)(C)C2` (stereo partly shown) [Compound A123], the IC50 in assay [1] (KRAS G12C FRET IC50) was 10 to 100 nM. In addition, the EC50 in assay [3] (Homo sapiens) was less than 5000 nM.
On to `CCn1c(-c2cccnc2[C@H](C)OC)c2c3cc(ccc31)-c1csc(n1)C[C@H](NC(=O)[C@H](C(C)C)N(C)C(=O)N(C)C)C(=O)N1CCC[C@H](N1)C(=O)OCC(C)(C)C2` [Compound A136], for which the IC50 in assay [1] (read-out: KRAS G12C FRET IC50) was 1000 to 10000 nM.
In the case of `CCn1c(-c2cccnc2[C@H](C)OC)c2c3cc(ccc31)-c1csc(n1)C[C@H](NC(=O)[C@H](C(C)C)N(C)C(=O)[C@@H]1OCC[C@@H]1C)C(=O)N1CCC[C@H](N1)C(=O)OCC(C)(C)C2` [Compound A143], the IC50 in assay [1] (read-out: KRAS G12C FRET IC50) was 100 to 1000 nM; in assay [2], 10 to 100 nM.
Consider `CCn1c(-c2cccnc2[C@H](C)OC)c2c3cc(ccc31)-c1cc(O)cc(c1)C[C@H](NC(=O)[C@H](C(C)C)N(C)C(=O)[C@H]1C[C@H]1C)C(=O)N1CCC[C@H](N1)C(=O)OCC(C)(C)C2` [Compound A146], for which the IC50 in assay [1] (read-out: KRAS G12C FRET IC50) and in assay [2] was 100 to 1000 nM each time.
In the case of `CCn1c(-c2cccnc2[C@H](C)OC)c2c3cc(ccc31)-c1nc(cs1)C[C@H](NC(=O)[C@H](C(C)C)N(C)C(C)=O)C(=O)N1CCC[C@H](N1)C(=O)OCC(C)(C)C2` [Compound A152], the IC50 in assay [1] (read-out: KRAS G12C FRET IC50) and in assay [2] was 10 to 100 nM in each case. Besides, the EC50 in assay [3] (Homo sapiens) is less than 5000 nM.
Take `CCn1c(-c2cccnc2[C@H](C)OC)c2c3cc(ccc31)-c1cc(O)cc(c1)C[C@H](NC(=O)[C@H](C(C)C)N(C)C(=O)O[C@H]1CCOC1)C(=O)N1CCC[C@H](N1)C(=O)OCC(C)(C)C2` [Compound A209]: the half-maximal inhibitory concentration (IC50) in assay [1] (read-out: KRAS G12C FRET IC50) was 10 to 100 nM and < 10 nM.
On to `C=CC(=O)N1CC[C@]2(CCCN([C@H](C(=O)N[C@H]3Cc4cc(O)cc(c4)-c4ccc5c(c4)c(c(-c4ccccc4CCOC)n5CC)CC(C)(C)COC(=O)[C@@H]4CCCN(N4)C3=O)C(C)C)C2)C1` [Compound A217], for which, in assay [1] (read-out: KRAS G12C FRET IC50), the IC50 is 100 to 1000 nM and > 10000 nM. The EC50 in assay [3] (Homo sapiens) is less than 5000 nM.
Take `CCn1c(-c2cccnc2[C@H](C)OC)c2c3cc(ccc31)-c1cc(O)cc(c1)C[C@H](NC(=O)[C@H](C(C)C)N(C)C(=O)C1NCCC13CC3)C(=O)N1CCC[C@H](N1)C(=O)OCC(C)(C)C2` (stereo partly shown) [Compound A228]: the IC50 in assay [1] (read-out: KRAS G12C FRET IC50) is 1000 to 10000 nM; in assay [2] it was more than 10000 nM.
With `CCn1c(-c2cccnc2[C@H](C)OC)c2c3cc(ccc31)-c1csc(n1)C[C@H](NC(=O)[C@H](C(C)C)N(C)C(=O)[C@H]1CCCO1)C(=O)N1CCC[C@H](N1)C(=O)OCC(C)(C)C2` [Compound A238], the IC50 in assay [1] (read-out: KRAS G12C FRET IC50) and in assay [2] was 10 to 100 nM throughout.
With `CCn1c(-c2cccnc2[C@H](C)OC)c2c3cc(ccc31)-c1csc(n1)C[C@H](NC(=O)[C@H](C(C)C)N(C)C(=O)N1CCC13CN(C)C3)C(=O)N1CCC[C@H](N1)C(=O)OCC(C)(C)C2` [Compound A274], the IC50 in assay [1] (read-out: KRAS G12C FRET IC50) was 1000 to 10000 nM; in assay [2], 100 to 1000 nM.
In the same order, the values of `CCn1c(-c2cccnc2[C@H](C)OC)c2c3cc(ccc31)-c1csc(n1)C[C@H](NC(=O)[C@H](C(C)C)N(C)C(=O)N1C[C@H]3CN(C)C[C@H]3C1)C(=O)N1CCC[C@H](N1)C(=O)OCC(C)(C)C2` [Compound A313] are 1000 to 10000 nM and more than 10000 nM.
On to `CCn1c(-c2cccnc2[C@H](C)OC)c2c3cc(ccc31)-c1cc(O)cc(c1)C[C@H](NC(=O)[C@H](C(C)C)N(C)C(=O)[C@H]1CCN(C(=O)[C@H]3CCCN3)C1)C(=O)N1CCC[C@H](N1)C(=O)OCC(C)(C)C2` [Compound A378], for which the IC50 lay in the range of 100 to 1000 nM in assay [1] (read-out: KRAS G12C FRET IC50) and 1000 to 10000 nM in assay [4].
In the case of `CCn1c(-c2cccnc2[C@H](C)OC)c2c3cc(ccc31)-c1cc(C#N)cc(c1)C[C@H](NC(=O)[C@H](C(C)C)N(C)C(C)=O)C(=O)N1CCC[C@H](N1)C(=O)OCC(C)(C)C2` [Compound A430], the IC50 in assay [1] (read-out: KRAS G12C FRET IC50) was 100 to 1000 nM; in assay [2] it was 10 to 100 nM.
`CCn1c(-c2cccnc2[C@H](C)OC)c2c3cc(ccc31)C1=C[C@@H](O)CN(C1)C[C@H](NC(=O)[C@H]1[C@H](C)[C@@H]1C)C(=O)N1CCC[C@H](N1)C(=O)OCC(C)(C)C2` [Compound A441, (1R,2R,3S)—N-((2^3S,6^3S,4S)-1^1-ethyl-2^3-hydroxy-1^2-(2-((S)-1-methoxyethyl)pyridin-3-yl)-10,10-dimethyl-5,7-dioxo-2^1,2^2,2^3,2^6,6^1,6^2,6^3,6^4,6^5,6^6-decahydro-1^1H-8-oxa-1 (5,3)-indola-6 (1,3)-pyridazina-2 (5,1)-pyridinacycloundecaphane-4-yl)-2,3-dimethylcyclopropane-1-carboxamide]: the IC50 in assay [1] (read-out: KRAS G12C FRET IC50) was in the range of 1000 to 10000 nM; in assay [5] it was 100 to 1000 nM. Further, in assay [3], the EC50 was less than 5000 nM.
Regarding `CCn1c(-c2cccnc2[C@H](C)OC)c2c3cc(ccc31)-c1csc(n1)C[C@H](NC(=O)[C@H](C(C)C)N(C)C(=O)N1CC3(CC(N(C)CCO)C3)C1)C(=O)N1CCC[C@H](N1)C(=O)OCC(C)(C)C2` [Compound A467], the results for the IC50 in assay [1] (read-out: KRAS G12C FRET IC50) and in assay [2] were 1000 to 10000 nM and 10 to 100 nM, respectively.
`CCn1c(-c2cc(N3CCN(C)CC3)cnc2[C@H](C)OC)c2c3cc(ccc31)-c1cccc(c1)C[C@H](NC(=O)[C@H](C(C)C)N(C)C(=O)[C@@H]1OCC[C@@H]1c1ccccc1)C(=O)N1CCC[C@H](N1)C(=O)OCC(C)(C)C2` [Compound A562]: the IC50 in assay [1] (read-out: KRAS G12C FRET IC50) and in assay [2] was 100 to 1000 nM throughout.
In the case of `CCn1c(-c2cccnc2[C@H](C)OC)c2c3cc(ccc31)-c1csc(n1)C[C@H](NC(=O)[C@H](C(C)C)N(C)C(=O)N1CC(C3CN(C)C3)C1)C(=O)N1CCC[C@H](N1)C(=O)OCC(C)(C)C2` [Compound A608], the IC50 in assay [1] (read-out: KRAS G12C FRET IC50) lay in the range of 100 to 1000 nM; in assay [2], 10 to 100 nM.
